Consider 4 compounds from ChEMBL document CHEMBL1128885, “Resolution and comparative anti-HIV evaluation of the enantiomers of calanolides A and B” (Bioorg Med Chem Lett, 1995).

In assay [1] the test system is Human immunodeficiency virus 1. The assay is described as follows: Effective concentration required for in vitro inhibitory activity against HIV-1; IA is Inactive. The class given is functional, organism-based.
In assay [2] the test system is Human immunodeficiency virus 1. Put plainly: Effective concentration required for in vitro inhibitory activity against HIV-1. The assay is classed as functional, organism-based.

Turning to `CCCc1cc(=O)oc2c3c(c4c(c12)OC(C)(C)C=C4)O[C@H](C)[C@@H](C)[C@H]3O` [(+)-CALANOLIDE B], the half-maximal effective concentration (EC50) result in assay [1] is recorded as “Not Active”.
The same measure, in the same setting: as for `CCCc1cc(=O)oc2c3c(c4c(c12)OC(C)(C)C=C4)O[C@@H](C)[C@H](C)[C@H]3O` [(-)-CALANOLIDE A], the entry is “Not Active”.
The compound `CCCc1cc(=O)oc2c3c(c4c(c12)OC(C)(C)C=C4)O[C@H](C)[C@@H](C)[C@@H]3O` [CALANOLIDE A] came in with an EC50 in assay [2] of 0.2 µM.
On the same count and under the same terms, to `CCCc1cc(=O)oc2c3c(c4c(c12)OC(C)(C)C=C4)O[C@@H](C)[C@H](C)[C@@H]3O` [COSTATOLIDE] belongs 0.3 µM.

As usually defined, the EC50 is the concentration giving half of the maximal effect. A lower EC50 goes with a more potent agent.
